Results published in ChEMBL document CHEMBL1201862, “PubChem BioAssay data set” (2004).
“And” between values parts separate entries of the source, which are not always exact repeats. Equal entries are not always repeated.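 Compound exposure: 48 hours, 5 concentrations, 96-well plates. Here, GI50 denotes the concentration required for 50% inhibition of growth.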 The source made the active and inactive calls. Rule as the data show it: active = GI50 up to about 1.1 µM and inactive = higher.

Columns and labels:
Test in all cases: NCI anticancer screen, dose series, 48 h
SK-MEL-2 = system: SK-MEL-2
KM-20L2 = system: KM-20L2
SN12C = system: SN12C
SNB-19 = system: SNB-19
NCI-H226 = system: NCI-H226
K562 = system: K562
ACHN = system: ACHN
SNB-75 = system: SNB-75
EKVX = system: EKVX
OVCAR-3 = system: OVCAR-3
RXF 631 = system: RXF 631
HCC 2998 = system: HCC 2998
HOP-18 = system: HOP-18
HOP-62 = system: HOP-62
A549 = system: A549
SK-MEL-28 = system: SK-MEL-28
SF-268 = system: SF-268
SK-MEL-5 = system: SK-MEL-5
NCI-H23 = system: NCI-H23
HCT-116 = system: HCT-116
MOLT-4 = system: MOLT-4
OVCAR-5 = system: OVCAR-5
SF-295 = system: SF-295
CAKI-1 = system: CAKI-1
DMS-114 = system: DMS-114
NCI-H460 = system: NCI-H460
RXF 393 = system: RXF 393
UO-31 = system: UO-31
SF-539 = system: SF-539
KM12 = system: KM12
DLD-1 = system: DLD-1
SNB-78 = system: SNB-78
RPMI-8226 = system: RPMI-8226
HT-29 = system: HT-29
CCRF-CEM = system: CCRF-CEM
COLO 205 = system: COLO 205
HCT-15 = system: HCT-15
Malme-3M = system: Malme-3M
LXFL 529 = system: LXFL 529
HOP-92 = system: HOP-92
M14 = system: M14
OVCAR-4 = system: OVCAR-4
UACC-257 = system: UACC-257
SW-620 = system: SW-620
UACC-62 = system: UACC-62
786-0 = system: 786-0
SR = system: SR
M19-MEL = system: M19-MEL
DMS-273 = system: DMS-273
IGROV-1 = system: IGROV-1
OVCAR-8 = system: OVCAR-8
HL-60 = system: HL-60
NCI-H522 = system: NCI-H522
A498 = system: A498
SK-OV-3 = system: SK-OV-3
TK-10 = system: TK-10
XF498 = system: XF498
U-251 = system: U-251
LOX IMVI = system: LOX IMVI
Hs-578T = system: Hs-578T
MDA-MB-231 = system: MDA-MB-231
DU-145 = system: DU-145
MCF7 = system: MCF7
MDA-MB-435 = system: MDA-MB-435
MDA-N = system: MDA-N
T47D = system: T47D
BT-549 = system: BT-549
PC-3 = system: PC-3
NCI/ADR-RES = system: NCI/ADR-RES

## CN(CCc1ccccn1)/[N+]([O-])=N/O.CNCCc1ccccn1
SK-MEL-2
  GI50: > 100 µM (inactive)
KM-20L2
  GI50: > 100 µM (inactive)
SN12C
  GI50: > 100 µM (inactive)
SNB-19
  GI50: > 100 µM (inactive)
NCI-H226
  GI50: > 100 µM (inactive)
K562
  GI50: > 100 µM (inactive)
ACHN
  GI50: > 100 µM (inactive)
SNB-75
  GI50: > 100 µM (inactive)
EKVX
  GI50: > 100 µM (inactive)
OVCAR-3
  GI50: > 100 µM (inactive)
RXF 631
  GI50: > 100 µM (inactive)
HCC 2998
  GI50: > 100 µM (inactive)
HOP-18
  GI50: > 100 µM (inactive)
HOP-62
  GI50: > 100 µM (inactive)
A549
  GI50: > 100 µM (inactive)
SK-MEL-28
  GI50: > 100 µM (inactive)
SF-268
  GI50: > 100 µM (inactive)
SK-MEL-5
  GI50: > 100 µM (inactive)
NCI-H23
  GI50: > 100 µM (inactive)
HCT-116
  GI50: > 100 µM (inactive)
MOLT-4
  GI50: > 100 µM (inactive)
OVCAR-5
  GI50: > 100 µM (inactive)
SF-295
  GI50: > 100 µM (inactive)
CAKI-1
  GI50: > 100 µM (inactive)
DMS-114
  GI50: > 100 µM (inactive)
NCI-H460
  GI50: > 100 µM (inactive)
RXF 393
  GI50: > 100 µM (inactive)
UO-31
  GI50: > 100 µM (inactive)
SF-539
  GI50: > 100 µM (inactive)
KM12
  GI50: > 100 µM (inactive)
DLD-1
  GI50: > 100 µM (inactive)
SNB-78
  GI50: > 100 µM (inactive)
RPMI-8226
  GI50: > 100 µM (inactive)
HT-29
  GI50: > 100 µM (inactive)
CCRF-CEM
  GI50: > 100 µM (inactive)
COLO 205
  GI50: > 100 µM (inactive)
HCT-15
  GI50: > 100 µM
Malme-3M
  GI50: > 100 µM (inactive)
LXFL 529
  GI50: > 100 µM (inactive)
HOP-92
  GI50: > 100 µM (inactive)
M14
  GI50: > 100 µM (inactive)
OVCAR-4
  GI50: > 100 µM (inactive)
UACC-257
  GI50: > 100 µM (inactive)
SW-620
  GI50: > 100 µM (inactive)
UACC-62
  GI50: > 100 µM (inactive)
786-0
  GI50: > 100 µM (inactive)
SR
  GI50: > 100 µM (inactive)
M19-MEL
  GI50: > 100 µM (inactive)
DMS-273
  GI50: > 100 µM (inactive)
IGROV-1
  GI50: > 100 µM (inactive)
OVCAR-8
  GI50: > 100 µM (inactive)
HL-60
  GI50: > 100 µM (inactive)

## Clc1ccc(-n2nnc(C3=NCCN3)c2-c2ccccc2)cc1
SK-MEL-2
  GI50: > 100 µM (inactive)
KM-20L2
  GI50: > 100 µM (inactive)
SN12C
  GI50: > 100 µM (inactive)
SNB-19
  GI50: > 100 µM (inactive)
NCI-H226
  GI50: > 100 µM (inactive)
K562
  GI50: > 100 µM (inactive)
ACHN
  GI50: > 100 µM (inactive)
NCI-H522
  GI50: > 100 µM (inactive)
SNB-75
  GI50: 47.3 µM (inactive)
EKVX
  GI50: > 100 µM (inactive)
OVCAR-3
  GI50: > 100 µM (inactive)
HCC 2998
  GI50: > 100 µM (inactive)
A498
  GI50: > 100 µM (inactive)
SK-OV-3
  GI50: > 100 µM (inactive)
HOP-18
  GI50: > 100 µM (inactive)
HOP-62
  GI50: > 100 µM (inactive)
A549
  GI50: > 100 µM (inactive)
SK-MEL-28
  GI50: > 100 µM (inactive)
TK-10
  GI50: 66.8 µM (inactive)
SF-268
  GI50: > 100 µM (inactive)
XF498
  GI50: > 100 µM (inactive)
SK-MEL-5
  GI50: 86.9 µM (inactive)
NCI-H23
  GI50: > 100 µM (inactive)
HCT-116
  GI50: > 100 µM (inactive)
MOLT-4
  GI50: 78.5 µM (inactive)
OVCAR-5
  GI50: > 100 µM (inactive)
SF-295
  GI50: > 100 µM (inactive)
CAKI-1
  GI50: > 100 µM (inactive)
DMS-114
  GI50: > 100 µM (inactive)
NCI-H460
  GI50: > 100 µM (inactive)
RXF 393
  GI50: > 100 µM (inactive)
UO-31
  GI50: 43.3 µM (inactive)
SF-539
  GI50: > 100 µM (inactive)
KM12
  GI50: > 100 µM (inactive)
U-251
  GI50: > 100 µM (inactive)
DLD-1
  GI50: > 100 µM (inactive)
SNB-78
  GI50: > 100 µM (inactive)
LOX IMVI
  GI50: > 100 µM (inactive)
RPMI-8226
  GI50: > 100 µM (inactive)
HT-29
  GI50: > 100 µM (inactive)
CCRF-CEM
  GI50: > 100 µM (inactive)
COLO 205
  GI50: > 100 µM (inactive)
HCT-15
  GI50: > 100 µM
Malme-3M
  GI50: > 100 µM (inactive)
LXFL 529
  GI50: > 100 µM (inactive)
HOP-92
  GI50: 68.7 µM (inactive)
M14
  GI50: > 100 µM (inactive)
OVCAR-4
  GI50: > 100 µM (inactive)
UACC-257
  GI50: > 100 µM (inactive)
SW-620
  GI50: > 100 µM (inactive)
UACC-62
  GI50: > 100 µM (inactive)
786-0
  GI50: > 100 µM (inactive)
SR
  GI50: > 100 µM (inactive)
M19-MEL
  GI50: > 100 µM (inactive)
DMS-273
  GI50: > 100 µM (inactive)
IGROV-1
  GI50: > 100 µM (inactive)
OVCAR-8
  GI50: > 100 µM (inactive)
HL-60
  GI50: > 100 µM (inactive)

## O=C1C(Br)=C(Br)C(=O)c2ccccc21 [2,3-Dibromo-1,4-naphthoquinone]
SK-MEL-2
  GI50: 19.6 µM (inactive) and 10.4 µM (inactive)
KM-20L2
  GI50: 30.2 µM (inactive) and 15.1 µM (inactive)
RXF 631
  GI50: 5.94 µM (inactive)
HCC 2998
  GI50: 21.7 µM (inactive) and 19.1 µM (inactive)
HOP-18
  GI50: 20.1 µM (inactive)
HOP-62
  GI50: 18.5 µM (inactive) and 21.5 µM (inactive)
A549
  GI50: 13.6 µM (inactive)
Hs-578T
  GI50: 4.98 µM (inactive)
TK-10
  GI50: 17.1 µM (inactive) and 12.7 µM (inactive)
SK-MEL-5
  GI50: 10.5 µM (inactive)
HCT-116
  GI50: 17.9 µM (inactive) and 12.2 µM (inactive)
OVCAR-5
  GI50: 20.5 µM (inactive) and 10.6 µM (inactive)
CAKI-1
  GI50: 6.34 µM (inactive)
MDA-MB-231
  GI50: 5.19 µM (inactive)
DU-145
  GI50: 18.7 µM (inactive)
MCF7
  GI50: 17.5 µM (inactive)
KM12
  GI50: 19.6 µM (inactive) and 12.8 µM (inactive)
MDA-MB-435
  GI50: 7.98 µM (inactive)
DLD-1
  GI50: 15.2 µM (inactive) and 18.5 µM (inactive)
RPMI-8226
  GI50: 3.01 µM (inactive)
MDA-N
  GI50: 3.84 µM (inactive)
T47D
  GI50: 3.5 µM (inactive)
HCT-15
  GI50: 17.2 µM and 11.9 µM
BT-549
  GI50: 4.61 µM (inactive)
M14
  GI50: 15.1 µM (inactive) and 8.77 µM (inactive)
OVCAR-4
  GI50: 17.1 µM (inactive) and 11.1 µM (inactive)
UACC-62
  GI50: 16.7 µM (inactive) and 9.71 µM (inactive)
786-0
  GI50: 18.3 µM (inactive) and 9.77 µM (inactive)
SR
  GI50: 2.2 µM (inactive)
PC-3
  GI50: 17.5 µM (inactive)
NCI/ADR-RES
  GI50: 22.2 µM (inactive)
HL-60
  GI50: 2.7 µM (inactive)
